Key:
[1] = molecular target: T1, EGFR L858R (Homo sapiens, UniProt P00533, L858R); test: Biochemical EGFR inhibition assay (Caliper mobility shift), EGFR L858R; conditions: biochemical Caliper mobility shift assay, EGFR L858R enzyme; read-out: Enz EGFR L858R IC50
T1 construct: purchased SignalChem E10-122BG
Procedure, shortened: (§1)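 Apparent IC50 from Caliper separation of phospho-peptide from substrate. Conditions: 2.5 µM 5-FAM peptide, 1.0 mM ATP or ATP Km, pH 7.5 HEPES buffer, room temperature, 10–20% conversion, EDTA stop.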

[2] = molecular target: T2, EGFR (d746-750) (Homo sapiens, UniProt P00533, DEL746-750); test: Biochemical EGFR inhibition assay (Caliper mobility shift), EGFR (d746-750); conditions: biochemical Caliper mobility shift assay, EGFR Exon 19-del enzyme; read-out: Enz EGFR Exon 19-del IC50
T2 construct: purchased SignalChem E10-122JG
Procedure, shortened: as §1

[3] = molecular target: intracellular phosphorylation of EGFR (Tyr1068) in PC-9 cells (Homo sapiens, UniProt P00533, DEL746-750); test: PC-9 pEGFR AlphaLISA assay; assay type: cell-based; conditions: 4 hours incubation, read-out: Phos EGFR PC9 IC50
Procedure, shortened: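 PC-9 cells (EGFR del746-750) in phenol-free DMEM/10% FBS, adhered overnight, then exposed to 10-point 4-fold compound dilutions for 4 h at 37 °C. Lysates assayed for pEGFR Tyr1068 by AlphaLISA SureFire Ultra; IC50 from percent pEGFR inhibition vs log concentration.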

T2 sequence (P00533 with tags, fused parts or gaps DEL746-750 limits assumed): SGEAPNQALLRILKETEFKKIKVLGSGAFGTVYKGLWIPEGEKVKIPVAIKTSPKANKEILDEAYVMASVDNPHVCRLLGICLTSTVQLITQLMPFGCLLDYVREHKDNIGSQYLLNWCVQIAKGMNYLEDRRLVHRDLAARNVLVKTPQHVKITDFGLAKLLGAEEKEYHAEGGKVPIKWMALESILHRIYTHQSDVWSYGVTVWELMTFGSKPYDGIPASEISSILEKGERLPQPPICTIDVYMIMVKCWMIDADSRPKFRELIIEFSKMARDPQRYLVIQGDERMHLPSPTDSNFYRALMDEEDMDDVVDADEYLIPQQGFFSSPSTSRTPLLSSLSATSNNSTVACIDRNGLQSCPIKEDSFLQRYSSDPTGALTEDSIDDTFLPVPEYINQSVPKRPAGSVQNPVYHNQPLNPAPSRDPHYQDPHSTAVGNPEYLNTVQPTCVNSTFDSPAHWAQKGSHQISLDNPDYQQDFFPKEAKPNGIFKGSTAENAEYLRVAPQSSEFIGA
T1 sequence (P00533 25-1210 L858R): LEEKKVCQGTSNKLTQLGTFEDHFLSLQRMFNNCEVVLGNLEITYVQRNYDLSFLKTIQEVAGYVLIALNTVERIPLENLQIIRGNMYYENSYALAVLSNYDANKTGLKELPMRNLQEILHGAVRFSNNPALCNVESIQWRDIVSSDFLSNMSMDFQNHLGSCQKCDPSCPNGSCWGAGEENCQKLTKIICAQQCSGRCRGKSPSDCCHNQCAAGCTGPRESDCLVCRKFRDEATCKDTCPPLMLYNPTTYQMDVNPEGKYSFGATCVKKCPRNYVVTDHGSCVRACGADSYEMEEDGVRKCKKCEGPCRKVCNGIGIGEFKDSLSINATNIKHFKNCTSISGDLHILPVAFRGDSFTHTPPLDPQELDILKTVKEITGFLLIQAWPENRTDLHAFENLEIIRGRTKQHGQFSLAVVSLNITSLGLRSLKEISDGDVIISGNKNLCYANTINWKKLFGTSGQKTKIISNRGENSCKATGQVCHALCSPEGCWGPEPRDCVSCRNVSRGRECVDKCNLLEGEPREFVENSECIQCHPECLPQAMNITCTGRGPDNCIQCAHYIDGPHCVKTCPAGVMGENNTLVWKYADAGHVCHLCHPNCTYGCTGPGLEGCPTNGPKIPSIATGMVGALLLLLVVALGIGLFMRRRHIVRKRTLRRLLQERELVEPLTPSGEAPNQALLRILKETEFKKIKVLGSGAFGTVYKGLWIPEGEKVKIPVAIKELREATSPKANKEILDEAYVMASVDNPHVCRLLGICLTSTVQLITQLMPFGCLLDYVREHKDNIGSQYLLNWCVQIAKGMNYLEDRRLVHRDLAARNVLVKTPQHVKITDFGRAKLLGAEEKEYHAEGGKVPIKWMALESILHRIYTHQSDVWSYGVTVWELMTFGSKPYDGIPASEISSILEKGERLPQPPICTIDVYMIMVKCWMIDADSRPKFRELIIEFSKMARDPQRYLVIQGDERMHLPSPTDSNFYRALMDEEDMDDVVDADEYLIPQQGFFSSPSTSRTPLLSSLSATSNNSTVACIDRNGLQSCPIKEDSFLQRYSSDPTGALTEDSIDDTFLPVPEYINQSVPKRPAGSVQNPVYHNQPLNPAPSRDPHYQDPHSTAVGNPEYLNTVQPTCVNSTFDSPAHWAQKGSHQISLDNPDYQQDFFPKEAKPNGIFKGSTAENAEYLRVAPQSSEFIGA
intracellular phosphorylation of EGFR (Tyr1068) in PC-9 cells, sequence (P00533 with tags, fused parts or gaps DEL746-750): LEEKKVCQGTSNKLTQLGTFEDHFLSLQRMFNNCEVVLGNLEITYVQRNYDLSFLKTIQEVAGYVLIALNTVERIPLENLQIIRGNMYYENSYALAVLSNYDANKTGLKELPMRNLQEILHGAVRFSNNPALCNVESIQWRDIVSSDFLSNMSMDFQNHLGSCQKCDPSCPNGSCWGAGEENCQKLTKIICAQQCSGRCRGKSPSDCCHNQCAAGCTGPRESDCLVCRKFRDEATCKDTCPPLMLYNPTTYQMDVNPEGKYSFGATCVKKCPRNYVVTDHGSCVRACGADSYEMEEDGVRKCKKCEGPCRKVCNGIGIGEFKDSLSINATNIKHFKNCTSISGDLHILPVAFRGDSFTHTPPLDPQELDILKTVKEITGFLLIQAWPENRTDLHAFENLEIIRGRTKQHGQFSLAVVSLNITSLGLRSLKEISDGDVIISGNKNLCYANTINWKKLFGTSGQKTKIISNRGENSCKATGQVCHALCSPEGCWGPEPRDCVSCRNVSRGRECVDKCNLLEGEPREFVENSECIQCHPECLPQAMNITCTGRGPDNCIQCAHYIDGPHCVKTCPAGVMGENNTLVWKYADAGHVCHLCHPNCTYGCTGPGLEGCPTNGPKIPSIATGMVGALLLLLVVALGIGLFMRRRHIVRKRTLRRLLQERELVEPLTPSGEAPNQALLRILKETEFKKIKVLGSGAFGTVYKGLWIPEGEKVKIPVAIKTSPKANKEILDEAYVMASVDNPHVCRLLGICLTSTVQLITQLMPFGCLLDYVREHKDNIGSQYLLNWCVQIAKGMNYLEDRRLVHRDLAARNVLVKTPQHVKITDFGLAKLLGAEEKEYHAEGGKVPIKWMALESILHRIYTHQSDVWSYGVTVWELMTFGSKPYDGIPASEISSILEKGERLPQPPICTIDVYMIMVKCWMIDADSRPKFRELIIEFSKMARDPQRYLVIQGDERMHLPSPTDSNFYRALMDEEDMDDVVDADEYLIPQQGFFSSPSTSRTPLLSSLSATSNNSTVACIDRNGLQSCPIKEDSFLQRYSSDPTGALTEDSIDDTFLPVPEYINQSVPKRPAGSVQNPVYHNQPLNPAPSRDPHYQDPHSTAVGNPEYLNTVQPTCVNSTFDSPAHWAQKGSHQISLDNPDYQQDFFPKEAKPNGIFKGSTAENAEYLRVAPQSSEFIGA

SMILES	IC50 [1] [µM]	IC50 [2] [µM]	IC50 [3] [µM]
Cn1cc(-c2cc(O[C@@H]3CC[C@@H]3O)c3c(Nc4ccc5ncsc5c4)ncnc3c2)cn1 (single isomer, unassigned) [Example A51]	≤ 0.01	≤ 0.01	≤ 0.01
Cc1cn(-c2cc(O[C@H](C)C3COC3)c3c(Nc4ccc5ncsc5c4)ncnc3c2)c(=O)n1C [Example 202, (R)-1-(4-(benzo[d]thiazol-6-ylamino)-5-(1-(oxetan-3-yl)ethoxy)quinazolin-7-yl)-3,4-dimethyl-1,3-dihydro-2H-imidazol-2-one]	≤ 0.01	≤ 0.01	≤ 0.01
C[C@@H]1CNCCN1c1cc(O[C@H](C)C2COC2)c2c(Nc3ccc4ncsc4c3F)ncnc2c1 (single isomer, unassigned) [Example 105]	0.0101 to 0.05	≤ 0.01	0.0101 to 0.05
CN1CC[C@@H](Oc2cc(-c3cnn(C)c3)cc3ncnc(Nc4ccc5ncsc5c4)c23)[C@@H](F)C1 (single isomer, unassigned) [Example 340]	≤ 0.01	≤ 0.01	≤ 0.01
Cn1cc(-c2cc(O[C@H]3CC[C@@H](N)CC3)c3c(Nc4ccc5ncsc5c4)ncnc3c2)cn1 [Example A09, N-(5-(((1s,4s)-4-aminocyclohexyl)oxy)-7-(1-methyl-1H-pyrazol-4-yl)quinazolin-4-yl)benzo[d]thiazol-6-amine]	≤ 0.01	≤ 0.01	≤ 0.01
C[C@@H](Oc1cc(N2CCN(C)CC2)cc2ncnc(Nc3ccc4ncsc4c3F)c12)C1COC1 (single isomer, unassigned) [Example 95]	0.0101 to 0.05	≤ 0.01	0.0101 to 0.05
COC[C@@H](C)Oc1cc(N2CCNCC2)cc2ncnc(Nc3ccc4ncsc4c3)c12 [Example 195, (R)-N-(5-((1-methoxypropan-2-yl)oxy)-7-(piperazin-1-yl)quinazolin-4-yl)benzo[d]thiazol-6-amine]	≤ 0.01	≤ 0.01	0.0101 to 0.05
Cn1cc(-c2cc(OC[C@H]3CCCO3)c3c(Nc4ccc5ncsc5c4)ncnc3c2)cn1 [Example 31, (R)-N-(7-(1-methyl-1H-pyrazol-4-yl)-5-((tetrahydrofuran-2-yl)methoxy)quinazolin-4-yl)benzo[d]thiazol-6-amine]	≤ 0.01	≤ 0.01	0.0101 to 0.05
CN1CCN(CCOc2cc(OC3CCOCC3)c3c(Nc4ccc5ncsc5c4)ncnc3c2)CC1 [Example A16, N-(7-(2-(4-methylpiperazin-1-yl)ethoxy)-5-((tetrahydro-2H-pyran-4-yl)oxy)quinazolin-4-yl)benzo[d]thiazol-6-amine]	0.0101 to 0.05	≤ 0.01	0.0101 to 0.05
Cn1cc(-c2cc(O[C@@H]3CCNC[C@H]3F)c3c(Nc4ccc5ncsc5c4F)ncnc3c2)cn1 [Example 348, 7-fluoro-N-(5-(((3R,4R)-3-fluoropiperidin-4-yl)oxy)-7-(1-methyl-1H-pyrazol-4-yl)quinazolin-4-yl)benzo[d]thiazol-6-amine]	≤ 0.01	≤ 0.01	≤ 0.01
Cn1cc(-c2cc(O[C@H]3CNCC[C@@H]3O)c3c(Nc4ccc5ncsc5c4)ncnc3c2)cn1 (racemic) [Example A45, (3S,4S)-3-((4-(benzo[d]thiazol-6-ylamino)-7-(1-methyl-1H-pyrazol-4-yl)quinazolin-5-yl)oxy)piperidin-4-ol]	0.0101 to 0.05	≤ 0.01	> 0.0501
Cn1cc(-c2cc(O[C@H]3CC[C@H]3O)c3c(Nc4ccc5ncsc5c4)ncnc3c2)cn1 [Example 185, (1R,2S)-2-((4-(benzo[d]thiazol-6-ylamino)-7-(1-methyl-1H-pyrazol-4-yl)quinazolin-5-yl)oxy)cyclobutan-1-ol]	≤ 0.01	≤ 0.01	≤ 0.01
C[C@H]1COCC[C@@H]1Oc1cc(-c2cnn(C)c2)cc2ncnc(Nc3ccc4ncsc4c3)c12 (racemic) [Example 26, trans-racemic N-(7-(1-methyl-1H-pyrazol-4-yl)-5-(((3S,4S)-3-methyltetrahydro-2H-pyran-4-yl)oxy)quinazolin-4-yl)benzo[d]thiazol-6-amine]	≤ 0.01	≤ 0.01	≤ 0.01
CN1CC[C@H](Oc2cc(-c3cn(C)nc3OC(F)F)cc3ncnc(Nc4ccc5ncsc5c4)c23)[C@@H](F)C1 (single isomer, unassigned) [Example 369]	0.0101 to 0.05	≤ 0.01	0.0101 to 0.05
Cn1cc(-c2cc(OCC#N)c3c(Nc4ccc5ncsc5c4)ncnc3c2)cn1 [Example 407, 2-((4-(benzo[d]thiazol-6-ylamino)-7-(1-methyl-1H-pyrazol-4-yl)quinazolin-5-yl)oxy)acetonitrile]	≤ 0.01	≤ 0.01	0.0101 to 0.05
COc1cc(O[C@H](C)C2COC2)c2c(Nc3ccc4ncsc4c3F)ncnc2c1 (single isomer, unassigned) [Example 83]	≤ 0.01	≤ 0.01	≤ 0.01
Cn1cc(-c2cc(OCC(=O)N3CCCCC3)c3c(Nc4ccc5ncsc5c4)ncnc3c2)cn1 [Example 272, 2-((4-(benzo[d]thiazol-6-ylamino)-7-(1-methyl-1H-pyrazol-4-yl)quinazolin-5-yl)oxy)-1-(piperidin-1-yl)ethan-1-one]	≤ 0.01	≤ 0.01	≤ 0.01
Cn1ccc(-c2cc3ncnc(Nc4ccc5ncsc5c4)c3cc2NC2CCNCC2)n1 [Example 266, N4-(benzo[d]thiazol-6-yl)-7-(1-methyl-1H-pyrazol-3-yl)-N6-(piperidin-4-yl)quinazoline-4,6-diamine]	≤ 0.01	≤ 0.01	0.0101 to 0.05
CN1CCC(n2cc(-c3cc(F)c4c(Nc5ccc6ncsc6c5F)ncnc4c3)cn2)CC1 [Example 227, 7-fluoro-N-(5-fluoro-7-(1-(1-methylpiperidin-4-yl)-1H-pyrazol-4-yl)quinazolin-4-yl)benzo[d]thiazol-6-amine]	≤ 0.01	≤ 0.01	0.0101 to 0.05
COC[C@@H](C)Oc1cc(-c2cnn(C)c2)cc2ncnc(Nc3ccc4ncsc4c3F)c12 [Example 91, (R)-7-fluoro-N-(5-((1-methoxypropan-2-yl)oxy)-7-(1-methyl-1H-pyrazol-4-yl)quinazolin-4-yl)benzo[d]thiazol-6-amine]	≤ 0.01	≤ 0.01	≤ 0.01
Cn1cc(-c2cc(O[C@H]3CCNC[C@@H]3F)c3c(Nc4ccc5ncsc5c4)ncnc3c2)cn1 (single isomer, unassigned) [Example 346]	≤ 0.01	≤ 0.01	≤ 0.01
C[C@H](CO)Oc1cc(N2CCN(C)CC2)cc2ncnc(Nc3ccc4ncsc4c3F)c12 (single isomer, unassigned) [Example 295]	0.0101 to 0.05	≤ 0.01	≤ 0.01
CN1CC[C@H](Oc2cc(-c3cnn(C)c3)cc3ncnc(Nc4ccc5ncsc5c4)c23)C[C@H]1CO [Example A07, ((2S,4S)-4-((4-(benzo[d]thiazol-6-ylamino)-7-(1-methyl-1H-pyrazol-4-yl)quinazolin-5-yl)oxy)-1-methylpiperidin-2-yl)methanol]	≤ 0.01	≤ 0.01	0.0101 to 0.05
CC(C)n1cc(-c2cc(OC3CCOCC3)c3c(Nc4ccc5ncsc5c4)ncnc3c2)cn1 [Example 191, N-(7-(1-isopropyl-1H-pyrazol-4-yl)-5-((tetrahydro-2H-pyran-4-yl)oxy)quinazolin-4-yl)benzo[d]thiazol-6-amine]	≤ 0.01	≤ 0.01	0.0101 to 0.05
C[C@@H](CN(C)C)Oc1cc(-c2cnn(C)c2)cc2ncnc(Nc3ccc4ncsc4c3)c12 (single isomer, unassigned) [Example 160, (R)—N-(5-((1-(dimethylamino)propan-2-yl)oxy)-7-(1-methyl-1H-pyrazol-4-yl)quinazolin-4-yl)benzo[d]thiazol-6-amine or (S)—N-(5-((1-(dimethylamino)propan-2-yl)oxy)-7-(1-methyl-1H-pyrazol-4-yl)quinazolin-4-yl)benzo[d]thiazol-6-amine]	≤ 0.01	≤ 0.01	≤ 0.01
C[C@H](CN(C)C)Oc1cc(-c2cnn(C)c2)cc2ncnc(Nc3ccc4ncsc4c3F)c12 [Example 140, (R)-N-(5-((1-(dimethylamino)propan-2-yl)oxy)-7-(1-methyl-1H-pyrazol-4-yl)quinazolin-4-yl)-7-fluorobenzo[d]thiazol-6-amine]	≤ 0.01	≤ 0.01	≤ 0.01
CN1CC[C@@H](Oc2cc(-c3cnn(C)c3)cc3ncnc(Nc4ccc5ncsc5c4)c23)[C@@H](F)C1 (racemic) [Example 339, cis-N-(5-(((3S,4R)-3-fluoro-1-methylpiperidin-4-yl)oxy)-7-(1-methyl-1H-pyrazol-4-yl)quinazolin-4-yl)benzo[d]thiazol-6-amine]	≤ 0.01	≤ 0.01	≤ 0.01
COc1nn(C)cc1-c1cc(OC2CCN(C3COC3)CC2)c2c(Nc3ccc4ncsc4c3)ncnc2c1 [Example 306, N-(7-(3-methoxy-1-methyl-1H-pyrazol-4-yl)-5-((1-(oxetan-3-yl)piperidin-4-yl)oxy)quinazolin-4-yl)benzo[d]thiazol-6-amine]	≤ 0.01	≤ 0.01	≤ 0.01
